Read-outs that look alike come from different tables or passages of the source.
Legend:
[1] = system: PBQ-induced writhing in the mouse; assay: Phenylbenzoquinone-induced (PBQ) writhing model
human CB2 (hCB2) = biological target: T1, human CB2 (hCB2) (Homo sapiens, UniProt P34972); assay: 35S GTPγS binding assay, hCB2 agonist; assay type: biochemical
T1 construct: (cDNA clone) CNR0200000
Summary of the method: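 Membranes (5 μg) from cells transfected with hCB2 cDNA in pcDNA3.1+ incubated with SPA beads, 0.1 nM [35S]GTPγS and 20 uM GDP in 50 mM HEPES pH 7.4, 100 mM NaCl, 5 mM MgCl2, 0.001% saponin, ± test compound. Incubation 90 min at room temperature; bound label read by scintillation counting.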

human CB1 (hCB1) = biological target: T2, human CB1 (hCB1) (Homo sapiens, UniProt P21554); assay: 35S GTPγS binding assay, hCB1 agonist; assay type: biochemical; conditions: GTPγS agonist, HEK-293 membranes; read-out: hCB1 EC50 (GTPyS ag)
T2 construct: (cDNA clone) CNR01L000
T2 sequence (P21554 whole entry): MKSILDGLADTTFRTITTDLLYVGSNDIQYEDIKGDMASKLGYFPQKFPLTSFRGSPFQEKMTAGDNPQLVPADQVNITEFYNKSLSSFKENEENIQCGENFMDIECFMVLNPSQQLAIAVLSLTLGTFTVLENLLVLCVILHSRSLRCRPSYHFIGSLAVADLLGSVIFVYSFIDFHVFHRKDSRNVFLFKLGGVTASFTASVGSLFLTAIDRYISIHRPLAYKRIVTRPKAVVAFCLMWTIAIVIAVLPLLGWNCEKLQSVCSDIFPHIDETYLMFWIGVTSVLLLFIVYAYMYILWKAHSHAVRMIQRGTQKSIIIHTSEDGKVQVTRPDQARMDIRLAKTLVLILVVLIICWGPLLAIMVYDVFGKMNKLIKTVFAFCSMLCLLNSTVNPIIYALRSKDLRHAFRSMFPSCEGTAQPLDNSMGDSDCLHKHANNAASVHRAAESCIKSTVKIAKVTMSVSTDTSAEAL
From the text: cDNA expression clones for human CB1 (hCB1, Genbank Accession No. AY225225) and human CB2 (hCB2, Genbank Accession No. AY242132) expressed in vector pcDNA3.1+ were purchased from UMR cDNA Resource Center, Rolla, Mo. (Clone ID CNR01L000 for hCB1; CNR0200000 for hCB2).
Stable, HEK-293-derived cell lines that recombinantly express hCBI or hCB2 were established. In brief, the clone hCB1 (CNR IL) or hCB2 (CNR2) was transfected into human embryonic kidney cells (HEK-293) using Lipofectamine 2000 (Gibco, Cat#11668-019) according to the manufacturer's protocol. Transfected clones were isolated by single colony purification and clones were screened for receptor expression using a whole cell, ^3H—CP 55,940 radioligand binding assay. HEK-293 stable cells were maintained in Dulbecco's modified Eagles medium (DMEM) containing 10% fetal bovine serum, 2 mM L-glutamine and 0.5 mg/mL G-418.
Membranes were isolated from transfected cells as follows. Monolayers of cultured cells were washed twice with phosphate-buffered saline (PBS). Cells were scraped into 20 mM HEPES, pH 7.4, 10 mM EDTA containing complete cocktail protease inhibitors (Roche, Catalog #11 697 498 001) and were homogenized by an electric-powered mechanical probe homogenizer (Omni GLH; probe G7-195S) for 40 seconds at 7000 rpm. Homogenates were centrifuged 10 minutes at 1000×g at 4° C. The supernatant was collected and was centrifuged for 1 hour at 40,000×g. The supernatant was then decanted and the resulting pellet was re-suspended in 20 mM HEPES, pH 7.4, 5 mM MgCl2, 1 mM EDTA, 10% sucrose with complete cocktail protease inhibitors. Protein concentration of membrane suspensions were measured by Bradford Protein Assay using bovine serum albumin as the standard (BioRad catalog #500-0006). Protein concentrations of membrane suspensions were adjusted with the final buffer in the range of 5 to 10 mg/mL and were stored at −80° C. until further use.
Functional assays which monitor G-protein coupled receptor or downstream cellular responses can be used to characterize potential CB1 receptor and/or CB2 receptor agonist or antagonist activities. Direct activation (or inhibition of activation) can be monitored using a GTPγS assay (membrane-based assay) or cAMP assay (whole cell-based assay).
^35S GTPγS binding assays were performed by incubating recombinant cell membranes prepared above (5 μg) in the presence of scintillation proximity assay beads (SPA beads, Catalog #RPNQ0252 GE Healthcare, Buckinghamshire, England) in GTPγS binding buffer [50 mM HEPES (pH 7.4), 100 mM NaCl, 5 mM MgCl2, 0.001% saponin (Sigma catalog #S4521)] supplemented with 20 uM GDP (Sigma catalog #G7127) in the presence or absence of test compound. The reaction was carried out in 96-well microplates with 0.1 nM [^35S]GTPγS (specific activity=1250 Ci/mmol; Perkin Elmer catalog #NEG030X250UC) in a final volume of 100 uL. After a 90 min room temperature incubation, the reaction was analyzed using a scintillation counter (Perkin Elmer Microbeta instrument). Binding data were analyzed using GraphPad Prism.

human CB2 receptors = biological target: T3, human CB2 receptors (Homo sapiens, UniProt P34972); assay: cAMP assay in HEK-293 cells, hCB2 agonist; assay type: cell-based
T3 construct: (cDNA clone) CNR0200000
T3 sequence (P34972 whole entry): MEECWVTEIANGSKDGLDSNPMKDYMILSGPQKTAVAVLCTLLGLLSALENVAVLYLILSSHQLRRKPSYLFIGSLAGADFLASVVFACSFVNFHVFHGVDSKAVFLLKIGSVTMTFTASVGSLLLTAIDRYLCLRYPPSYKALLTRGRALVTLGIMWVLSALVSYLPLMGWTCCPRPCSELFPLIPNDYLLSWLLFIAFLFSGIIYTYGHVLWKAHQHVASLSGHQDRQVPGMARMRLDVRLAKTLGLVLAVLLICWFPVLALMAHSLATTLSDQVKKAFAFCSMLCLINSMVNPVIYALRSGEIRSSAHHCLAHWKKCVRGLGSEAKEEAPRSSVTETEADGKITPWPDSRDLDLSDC
Summary of the method: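 HEK-293 cells stably expressing human CB2, suspended at 1,500,000 cells/mL in HBSS with 10 mM HEPES and 0.1% fatty-acid-free BSA, exposed to test compound plus forskolin (90 uM in the 3× compound solution) for 30 min at 37° C.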

[2] = biological target: T4, recombinant human cannabinoid receptor CB1 (Homo sapiens, UniProt P21554); assay: Cannabinoid receptor radioligand binding assay, [3H]-CP 55,940 displacement, hCB1
T4 construct: (cDNA clone) CNR01L000
T4 sequence (P21554 whole entry): as the sequence (P21554 whole entry) above
Summary of the method: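 Membranes from HEK-293 cells stably expressing human CB1, 2-10 μg protein, incubated 90 min at room temperature with 0.5 nM [3H]-CP 55,940 in Tris-HCl pH 7.5, MgCl2, EDTA and 0.1% fatty-acid-free BSA. Bound radioactivity counted after rapid filtration; nonspecific binding defined with 1 μM unlabeled CP 55,940.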

[3] = system: CFA induced inflammatory pain in the rat; assay: Complete Freund's Adjuvant (CFA) induced inflammatory pain model; assay type: in vivo; conditions: 60 mg/kg PO
Procedure: In this rat model of inflammatory pain, 100 uL of CFA diluted 1:1 with phosphate buffered saline was injected into the subplantar region of the right hind paw on Day 1. On day 3, test compounds were administered orally and rats were assessed for their reaction to a mechanical stimuli applied via an Analgesy® meter. Injection of CFA increased the rats' reactivity to painful stimuli and this was reflected in a decrease in the amount of pressure they could tolerate prior to withdrawing their paw from the apparatus (hyperalgesia). An anti-hyperalgesic activity of the test compound was denoted by an increase in the amount of pressure they can tolerate prior to withdrawing their paw from the apparatus. The mean±SEM for each treatment group was determined and a Dunnett test was applied for comparison between vehicle and treated groups. Differences were considered significant at P<0.05. (see Bertorelli et al. 1999 Brit Journ Pharmacol 128:1252).

T1 sequence (P34972 whole entry): as the sequence (P34972 whole entry) above

Cc1cc2cc(C(=O)c3cccc(Cl)c3Cl)sc2n1CCN1CCOCC1 [Compound I-1]
Number of Writhes ([1]; Dose 30, IP): 0.4 ± 0.31 | Number of Writhes ([1]; Dose 30, PO): 7.5 ± 1.91

COc1cc(F)c(C(=O)c2cc3cc(C)n(CC4CCOCC4)c3s2)c(F)c1 [Compound 180, (2,6-difluoro-4-methoxyphenyl)(5-methyl-6-((tetrahydro-2H-pyran-4-yl)methyl)-6H-thieno[2,3-b]pyrrol-2-yl)methanone]
EC50 (human CB2 (hCB2)): < 100 nM | EC50 (human CB1 (hCB1)): 1000 to 10000 nM | EC50 (human CB2 receptors): < 100 nM | IC50 [2]: 100 to 1000 nM

Cc1ccc(C(=O)c2cc3cc(C)n(CCN4CCOCC4)c3s2)cc1 [Compound I-124]
Post CFA PWT (grams) [3]: 196.7 ± 27.3 grams

CCOc1ccc(C(=O)c2cc3cc(C)n(CCCNS(C)(=O)=O)c3s2)c(F)c1 [Compound I-95]
Post CFA PWT (grams) [3]: 111.7 ± 20.5 grams

Cc1cc2cc(C(=O)c3ccc(Cl)cc3)sc2n1CCN1CCOCC1 [Compound I-6]
Number of Writhes ([1]; Dose 30, PO): 3.7 ± 0.7

Cc1cc2cc(C(=O)c3ccc(OC(C)C)cc3)sc2n1CCN1CCOCC1 [Compound I-111]
Post CFA PWT (grams) [3]: 140.7 ± 13.7 grams

Cc1cc2cc(C(=O)c3ccc(Cl)cc3Cl)sc2n1CCN1CCOCC1 [Compound I-10]
Number of Writhes ([1]; Dose 30, PO): 3.7 ± 0.7

COc1ccc(C(=O)c2cc3cc(C)n(CC4CCOCC4)c3s2)cn1 [Compound I-144]
Number of Writhes ([1]; Dose 3, PO): 5.04 ± 1.8 | Number of Writhes ([1]; Dose 10, PO): 3.24 ± 1.08 | Number of Writhes ([1]; Dose 30, PO): 1.8 ± 0.72

CCS(=O)(=O)n1c(C)cc2cc(C(=O)c3cccc(Cl)c3Cl)sc21 [Compound I-25]
Number of Writhes ([1]; Dose 30, IP): 5.9 ± 2.46

COc1ccc(C(=O)c2cc3cc(C)n(CCN4CCCCC4)c3s2)cc1 [Compound I-78]
Post CFA PWT (grams) [3]: 181.7 ± 22.3 grams

COc1ccc(C(=O)c2cc3cc(C)n(CCN4CCC(F)(F)CC4)c3s2)cn1 [Compound 152, (6-(2-(4,4-difluoropiperidin-1-yl)ethyl)-5-methyl-6H-thieno[2,3-b]pyrrol-2-yl)(6-methoxypyridin-3-yl)methanone]
EC50 (human CB2 (hCB2); GTPγS agonist, HEK-293 membranes, read-out: hCB2 EC50 (GTPyS ag)): < 100 nM | EC50 (human CB1 (hCB1)): 1000 to 10000 nM | EC50 (human CB2 receptors; inhibition of forskolin-stimulated cAMP, HEK-293 cells, read-out: hCB2 EC50 (cAMP ag)): < 100 nM | IC50 [2]: < 100 nM

Cc1cc2cc(C(=O)c3ccccn3)sc2n1CCN1CCOCC1 [Compound I-16]
Number of Writhes ([1]; Dose 30, IP): 10.0 ± 2.76

COc1ccc(C(=O)c2cc3cc(C)n(CCCNS(=O)(=O)C(F)(F)F)c3s2)cc1 [Compound 154, 1,1,1-trifluoro-N-(3-(2-(4-methoxybenzoyl)-5-methyl-6H-thieno[2,3-b]pyrrol-6-yl)propyl)methanesulfonamide]
EC50 (human CB2 (hCB2)): 1000 to 10000 nM | EC50 (human CB1 (hCB1)): > 10000 nM | EC50 (human CB2 receptors): 100 to 1000 nM | IC50 [2]: 158 nM
